The nature of data set [1]: Compound cytotoxicity, XTT-based colorimetric assay. The format is cell-based. The note with it: human; uninfected MT2 cells, day 4, XTT. As to the method: Compound cytotoxicity and the corresponding CC50 values were determined using the same protocol as described in the antiviral assay except that uninfected cells were used. Cytotoxicity was assessed on day 4 in uninfected MT2 cells by using a XTT (2,3-bis[2-Methoxy-4-nitro-5-sulfophenyl]-2H-tetrazolium-5-carboxyanilide inner salt)-based colorimetric assay (Sigma-Aldrich, St Louis, Mo.).
In general terms: Tetrazolium dyes change colour on reduction, which living cells bring about.

The test system of the next data set is recombinant NL4-3 virus. Description: HIV cell culture assay (luciferase reporter antiviral activity). The data set is classed as cell-based. The note with it: Human immunodeficiency virus 1, NL43, MT2. As to the method: HIV cell culture assay—MT=2 cells, 293T cells and the proviral DNA clone of NL4-3 virus were obtained from the NIH AIDS Research and Reference Reagent Program. MT=2 cells were propagated in RPMI 1640 media supplemented with 10% heat inactivated fetal bovine serum (FBS), […] penicillin G and up to 100 units/mL streptomycin. The 293T cells were propagated in DMEM media supplemented with 10% heat inactivated FBS, […] penicillin G and […] streptomycin. A recombinant NL4-3 proviral clone, in which a section of the nef gene was replaced with the Renilla luciferase gene, was used to make the reference virus used in these studies. The recombinant virus was prepared through transfection of the recombinant NL4-3 proviral clone into 293T cells using Transit-293 Transfection Reagent from Mirus Bio LLC (Madison, Wis.). Supernatent was harvested after 2-3 days and the amount of virus present was titered in MT=2 cells using luciferase enzyme activity as a marker by measuring luciferase enzyme activity. Luciferase was quantitated using the EnduRen Live Cell Substrate from Promega (Madison, Wis.). Antiviral activities of compounds toward the recombinant virus were quantified by measuring luciferase activity in MT=2 cells infected for 4-5 days with the recombinant virus in the presence of serial dilutions of the compound.
The 50% effective concentration (EC50) was calculated by using the exponential form of the median effect equation where (Fa)=1/[1+(ED50/drug conc.)m] (Johnson V A, Byington RT. Infectivity Assay. In Techniques in HIV Research. ed. Aldovini A, Walker B D. 71-76. New York: Stockton Press.1990). The 50% inhibitory concentration (EC50) was calculated by using the exponential form of the median effect equation where percent inhibition=1/[1+(EC50/drug concentration)m], where m is a parameter that reflects the slope of the concentration-response curve.

The values that follow come from patent publication US20220370451A1, “INHIBITORS OF HUMAN IMMUNODEFICIENCY VIRUS REPLICATION” (VIIV HEALTHCARE UK ( No. 5) LIMITED, priority 2019, published 2022).

By CC50 is commonly meant the concentration that lowers cell viability or growth by half. High values mean lower toxicity to the cells, low ones greater toxicity to the cells. In general, EC50 refers to the midpoint of the concentration-response curve.

Molecules are shown by their SMILES. Some results are limits rather than exact numbers.

As for `Cn1nc(NS(C)(=O)=O)c2c(Cl)ccc(-n3c([C@H](Cc4cc(F)cc(F)c4)NC(=O)Cn4nc(C5CC5)c5ccccc54)nc4nc(-c5ccccc5F)ccc4c3=O)c21` (atropisomer, axis not shown; (P)) [Example 15, (S)-N-(1-((3P)-3-(4-chloro-1-methyl-3-(methylsulfonamido)-1H-indazol-7-yl)-7-(2-fluorophenyl)-4-oxo-3,4-dihydropyrido[2,3-d]pyrimidin-2-yl)-2-(3,5-difluorophenyl)ethyl)-2-(3-cyclopropyl-1H-indazol-1-yl)acetamide], in data set [1], the CC50 at 4 days was > 500 nM. For the same compound, the EC50 in the data set with recombinant NL4-3 virus turned out to be 0.17 nM.
Consider `CS(=O)(=O)Nc1nn(CC(F)F)c2c(-n3c([C@H](Cc4cc(F)cc(F)c4)NC(=O)Cn4nc(C(F)F)cc4C4CC4)nc4nc(-c5ccccc5F)ccc4c3=O)ccc(Cl)c12` (atropisomer, axis not shown; (P)) [Example 16], for which the CC50 at 4 days in data set [1] was > 500 nM. Moreover, the EC50 with recombinant NL4-3 virus is 0.37 nM.
Consider `CS(=O)(=O)Nc1nn(CC(F)F)c2c(-n3c([C@H](Cc4cc(F)cc(F)c4)NC(=O)Cn4nc(C5CC5)cc4C(F)F)nc4nc(-c5ccccc5F)ccc4c3=O)ccc(Cl)c12` (atropisomer, axis not shown; (P)) [Example 17, (S)-N-(1-((3P)-3-(4-chloro-1-(2,2-difluoroethyl)-3-(methylsulfonamido)-1H-indazol-7-yl)-7-(2-fluorophenyl)-4-oxo-3,4-dihydropyrido[2,3-d]pyrimidin-2-yl)-2-(3,5-difluorophenyl)ethyl)-2-(3-cyclopropyl-5-(difluoromethyl)-1H-pyrazol-1-yl)acetamide], for which the CC50 at 4 days in data set [1] was > 500 nM. Moreover, the EC50 in the data set on recombinant NL4-3 virus amounted to 0.52 nM.
As for `CS(=O)(=O)Nc1nn(CC(F)F)c2c(-n3c([C@H](Cc4cc(F)cc(F)c4)NC(=O)Cn4nc(C5CC5)c5ccccc54)nc4nc(-c5ccccc5F)ccc4c3=O)ccc(Cl)c12` (atropisomer, axis not shown; (P)) [Example 18, (S)-N-(1-((3P)-3-(4-chloro-1-(2,2-difluoroethyl)-3-(methylsulfonamido)-1H-indazol-7-yl)-7-(2-fluorophenyl)-4-oxo-3,4-dihydropyrido[2,3-d]pyrimidin-2-yl)-2-(3,5-difluorophenyl)ethyl)-2-(3-cyclopropyl-1H-indazol-1-yl)acetamide], in data set [1], the CC50 at 4 days was > 500 nM. Besides, the EC50 in the data set on recombinant NL4-3 virus was found to be 0.17 nM.
For the compound `Cn1nc(NS(C)(=O)=O)c2c(Cl)ccc(-n3c([C@H](Cc4cc(F)cc(F)c4)NC(=O)C(C)(C)n4ccc(C5CC5)n4)nc4nc(-c5ccccc5F)ccc4c3=O)c21` (atropisomer, axis not shown; (P)) [Example 19, (S)-N-(1-((3P)-3-(4-chloro-1-methyl-3-(methylsulfonamido)-1H-indazol-7-yl)-7-(2-fluorophenyl)-4-oxo-3,4-dihydropyrido[2,3-d]pyrimidin-2-yl)-2-(3,5-difluorophenyl)ethyl)-2-(3-cyclopropyl-1H-pyrazol-1-yl)-2-methylpropanamide], the CC50 at 4 days in data set [1] was > 500 nM. Also, the EC50 in the data set with recombinant NL4-3 virus was found to be 0.22 nM.
Regarding `CC(C)(C(=O)N[C@@H](Cc1cc(F)cc(F)c1)c1nc2nc(-c3ccccc3F)ccc2c(=O)n1-c1ccc(Cl)c2c(NS(C)(=O)=O)nn(CC(F)F)c12)n1ccc(C2CC2)n1` (atropisomer, axis not shown; (P)) [Example 20], the 50% cytotoxic concentration (CC50) at 4 days in data set [1] is > 500 nM. Moreover, in the data set on recombinant NL4-3 virus, the EC50 amounted to 0.96 nM.
Regarding `CC(C)(C(=O)N[C@@H](Cc1cc(F)cc(F)c1)c1nc2nc(-c3ccccc3F)ccc2c(=O)n1-c1ccc(Cl)c2c(NS(=O)(=O)C3CC3)nn(CC(F)F)c12)n1ccc(C2CC2)n1` (atropisomer, axis not shown; (P)) [Example 21, (S)-N-(1-((3P)-3-(4-chloro-3-(cyclopropanesulfonamido)-1-(2,2-difluoroethyl)-1H-indazol-7-yl)-7-(2-fluorophenyl)-4-oxo-3,4-dihydropyrido[2,3-d]pyrimidin-2-yl)-2-(3,5-difluorophenyl)ethyl)-2-(3-cyclopropyl-1H-pyrazol-1-yl)-2-methylpropanamide], the CC50 at 4 days in data set [1] was > 500 nM. Moreover, in the data set on recombinant NL4-3 virus, the EC50 was found to be 2.3 nM.
Consider `CC(C)(C(=O)N[C@@H](Cc1cc(F)cc(F)c1)c1nc2nc(-c3ccccc3F)ccc2c(=O)n1-c1ccc(Cl)c2c(NS(C)(=O)=O)nn(CC(F)(F)F)c12)n1ccc(C2CC2)n1` (atropisomer, axis not shown; (P)) [Example 22, (S)-N-(1-((3P)-3-(4-chloro-3-(methylsulfonamido)-1-(2,2,2-trifluoroethyl)-1H-indazol-7-yl)-7-(2-fluorophenyl)-4-oxo-3,4-dihydropyrido[2,3-d]pyrimidin-2-yl)-2-(3,5-difluorophenyl)ethyl)-2-(3-cyclopropyl-1H-pyrazol-1-yl)-2-methylpropanamide], for which, in data set [1], the CC50 at 4 days is > 500 nM. Further, in the data set on recombinant NL4-3 virus, the EC50 was determined as 0.8 nM.
The like results for `CC(C)[C@@H](C(=O)N[C@@H](Cc1cc(F)cc(F)c1)c1nc2nc(-c3ccccc3F)ccc2c(=O)n1-c1ccc(Cl)c2c(NS(C)(=O)=O)nn(CC(F)(F)F)c12)n1ccc(C2CC2)n1` (atropisomer, axis not shown; (P)) [Example 23, N-((S)-1-((3P)-3-(4-chloro-3-(methylsulfonamido)-1-(2,2,2-trifluoroethyl)-1H-indazol-7-yl)-7-(2-fluorophenyl)-4-oxo-3,4-dihydropyrido[2,3-d]pyrimidin-2-yl)-2-(3,5-difluorophenyl)ethyl)-2-(3-cyclopropyl-1H-pyrazol-1-yl)-3-methylbutanamide] were, in that order, > 500 nM and 0.21 nM.
Turning to `CC(C)[C@H](C(=O)N[C@@H](Cc1cc(F)cc(F)c1)c1nc2nc(-c3ccccc3F)ccc2c(=O)n1-c1ccc(Cl)c2c(NS(=O)(=O)C3CC3)nn(CC(F)F)c12)n1ccc(C2CC2)n1` (atropisomer, axis not shown; (P)) [Example 24, N-((S)-1-((3P)-3-(4-chloro-3-(cyclopropanesulfonamido)-1-(2,2-difluoroethyl)-1H-indazol-7-yl)-7-(2-fluorophenyl)-4-oxo-3,4-dihydropyrido[2,3-d]pyrimidin-2-yl)-2-(3,5-difluorophenyl)ethyl)-2-(3-cyclopropyl-1H-pyrazol-1-yl)-3-methylbutanamide], the CC50 at 4 days in data set [1] is > 500 nM. The EC50 in the data set on recombinant NL4-3 virus was 3.9 nM.
In the case of `CC(C)[C@H](C(=O)N[C@@H](Cc1cc(F)cc(F)c1)c1nc2nc(-c3ccccc3F)ccc2c(=O)n1-c1ccc(Cl)c2c(NS(C)(=O)=O)nn(CC(F)(F)F)c12)n1ccc(C2CC2)n1` (atropisomer, axis not shown; (P)) [Example 26, N-((S)-1-((3P)-3-(4-chloro-3-(methylsulfonamido)-1-(2,2,2-trifluoroethyl)-1H-indazol-7-yl)-7-(2-fluorophenyl)-4-oxo-3,4-dihydropyrido[2,3-d]pyrimidin-2-yl)-2-(3,5-difluorophenyl)ethyl)-2-(3-cyclopropyl-1H-pyrazol-1-yl)-3-methylbutanamide], in data set [1], the CC50 at 4 days was > 500 nM. Further, the EC50 with recombinant NL4-3 virus was determined as 1.9 nM.
For `Cn1nc(NS(C)(=O)=O)c2c(Cl)ccc(-n3c([C@H](Cc4cc(F)cc(F)c4)NC(=O)Cn4nc(C5CC5)cc4C(F)F)nc4cc(-c5ccccc5F)ccc4c3=O)c21` (atropisomer, axis not shown; (P)) [Example 29, (S)-N-(1-((3P)-3-(4-chloro-1-methyl-3-(methylsulfonamido)-1H-indazol-7-yl)-7-(2-fluorophenyl)-4-oxo-3,4-dihydroquinazolin-2-yl)-2-(3,5-difluorophenyl)ethyl)-2-(3-cyclopropyl-5-(difluoromethyl)-1H-pyrazol-1-yl)acetamide] the same measures were > 500 nM and 3.1 nM.
For `Cc1nccnc1-c1ccc2c(=O)n(-c3ccc(C)c4c(NS(C)(=O)=O)nn(CC(F)F)c34)c([C@H](Cc3cc(F)cc(F)c3)NC(=O)Cn3nc(C(F)F)c4c3C(F)(F)[C@@H]3C[C@H]43)nc2c1` (atropisomer, axis not shown; (P)) [Example 32, N-((S)-1-(3-(1-(2,2-difluoroethyl)-4-methyl-3-(methylsulfonamido)-1H-indazol-7-yl)-(3P)-7-(3-methylpyrazin-2-yl)-4-oxo-3,4-dihydroquinazolin-2-yl)-2-(3,5-difluorophenyl)ethyl)-2-((3bS,4aR)-3-(difluoromethyl)-5,5-difluoro-3b,4,4a,5-tetrahydro-1H-cyclopropa[3,4]cyclopenta[1,2-c]pyrazol-1-yl)acetamide], the CC50 at 4 days in data set [1] is > 500 nM. Further, in the data set with recombinant NL4-3 virus, the EC50 was found to be 0.063 nM.
